In brackets after ≈: the same amount, converted by molar mass.
Legend:
[1] = tested on: Phytophthora capsici infection on pepper plants; assay: Control efficacy against Phytophthora blight on pepper plants in a growth room; format: in vivo
Description: The commercial fungicide metalaxyl was used to compare the antifungal activity with thiobutacin against Phytophthora capsici infection on pepper plants in a growth room. Before the pepper plant was inoculated with Phytophthora capsici infection, disease severity was determined both for each treated with various concentrations of thiobutacin and metalaxyl and for the untreated control. Disease severity on pepper plants was rated daily after inoculation based on a scale 0-5: 0=no visible disease symptoms; 1=leaves slightly wilted with brownish lesions beginning to appear on stems; 2=30-50% of entire plant diseased; 3=50-70% of entire plant diseased; 4=70-90% of entire plant diseased; and 5=plant dead.

[2] = tested on: Fusarium oxysporum f.sp. cucumerinum; assay: MIC in microtiter plates; format: cell-based
Magnaporthe grisea = assay: microbe, parasite or virus in culture; format: cell-based
[3] = tested on: Erwinia carotovora subsp. carotovora; assay: microbe, parasite or virus in culture; format: cell-based; conditions: Pectobacterium carotovorum, 96 h; 28° C., 4 days
Candida albicans = assay: microbe, parasite or virus in culture; format: cell-based; conditions: 96 h, 28° C., 4 days
Cladosporium cucumerinum = assay: MIC in microtiter plates; format: cell-based; conditions: 96 h, 28° C., 4 days, complete inhibition of growth
[4] = tested on: Xanthomonas campestris pv. Vesicatoria; assay: microbe, parasite or virus in culture; format: cell-based; conditions: 96 h, 28° C., 4 days
[5] = tested on: Colletotrichum orbiculare; assay: MIC in microtiter plates; format: cell-based
Bacillus subtilis = assay: microbe, parasite or virus in culture; format: cell-based; conditions: 96 h, 28° C., 4 days
Saccharomyces cerevisiae = assay: microbe, parasite or virus in culture; format: cell-based; conditions: 96 h, 28° C., 4 days
Rhizoctonia solani = assay: MIC in microtiter plates; format: cell-based
Phytophthora capsici = assay: microbe, parasite or virus in culture; format: cell-based; conditions: 96 h, 28° C., 4 days
Ralstonia solanacearum = assay: microbe, parasite or virus in culture; format: cell-based; conditions: 96 h
Alternaria mali = assay: MIC in microtiter plates; format: cell-based
Botrytis cinerea = assay: MIC in microtiter plates; format: cell-based; conditions: 96 h, 28° C., 4 days, complete inhibition of growth
[6] = from 4 days after inoculation, treated plants
[7] = from 5 days after inoculation, 10 μg/ml
[8] = 96 h, 28° C., 4 days, complete inhibition of growth

Q: For `COCC(=O)N(c1c(C)cccc1C)C(C)C(=O)OC` (stereo not drawn) [metalaxyl, reference compound], which “disease symptoms on pepper plants” value [1, 6] is on record?
A: Its value is “did not exhibit any symptoms”.

Q: What about the “disease symptoms on pepper plants” value [1, 7] of the same compound?
A: The value was “slight disease symptoms”.

Q: What about the “disease symptoms on pepper plants” value ([1]; from 5 days after inoculation, 50 μg/ml) of the same compound?
A: The value was “exhibited the disease development in the leaves”.

Q: What about the “disease symptoms on pepper plants” value ([1]; higher concentrations than 100 μg/ml) of the same compound?
A: Its value is “did not show any phytophthora development”.

Q: For `CSC(CC(=O)c1ccccc1N)C(=O)O` (stereo not drawn) [thiobutacin, 4-(2-aminophenyl)-4-oxo-2-methylthio-butanoic acid], which MIC ([2]; 96 h, Fusarium oxysporum f.sp. cucumerinum, 28° C., 4 days, complete inhibition of growth) is on record?
A: Its MIC is over 100 µg/mL.

Q: And the “growth inhibition (in words)” value ([2]; Fusarium oxysporum f. sp. cucumerinum)?
A: Its value is “not inhibited”.

Q: And the “growth inhibition (in words)” value (Magnaporthe grisea; Magnaporthe grisea)?
A: The value was “not inhibited”.

Q: And the MIC (Magnaporthe grisea; Pyricularia oryzae, 96 h)?
A: The MIC was over 100 µg/mL.

Q: What about the “disease symptoms on pepper plants” value ([1]; after 10 days, 100 μg/ml) of the same compound?
A: The value was “slight damages”.

Q: What about the “disease symptoms on pepper plants” value ([1]; after 10 days, 500 μg/ml) of the same compound?
A: The value was “did not show any phytophthora infection”.

Q: And the “disease symptoms on pepper plants” value [1, 6]?
A: The value was “did not exhibit any symptoms”.

Q: What about the “disease symptoms on pepper plants” value [1, 7] of the same compound?
A: The value was “exhibited the disease development in the leaves”.

Q: What about the MIC [3] of the same compound?
A: The MIC was over 100 µg/mL.

Q: What about the MIC (Candida albicans) of the same compound?
A: The MIC was over 100 µg/mL.

Q: And the MIC (Cladosporium cucumerinum)?
A: Its MIC is 50 µg/mL (≈ 209 µM).

Q: And the MIC [4]?
A: The MIC was over 100 µg/mL.

Q: And the “growth inhibition (in words)” value [5]?
A: The value was “not inhibited”.

Q: What about the MIC [5, 8] of the same compound?
A: Its MIC is over 100 µg/mL.

Q: What about the MIC (Bacillus subtilis) of the same compound?
A: Its MIC is over 100 µg/mL.

Q: What about the MIC (Saccharomyces cerevisiae) of the same compound?
A: The MIC was 30 µg/mL (≈ 125 µM).

Q: What about the “growth inhibition (in words)” value (Rhizoctonia solani) of the same compound?
A: Its value is “not inhibited”.

Q: What about the MIC (Rhizoctonia solani; [8]) of the same compound?
A: The MIC was over 100 µg/mL.

Q: And the MIC (Phytophthora capsici)?
A: The MIC was 10 µg/mL (≈ 41.8 µM).

Q: What about the MIC (Ralstonia solanacearum) of the same compound?
A: Its MIC is over 100 µg/mL.

Q: What about the “growth inhibition (in words)” value (Alternaria mali) of the same compound?
A: The value was “not inhibited”.

Q: And the MIC (Alternaria mali; [8])?
A: The MIC was over 100 µg/mL.

Q: And the MIC (Botrytis cinerea)?
A: Its MIC is 50 µg/mL (≈ 209 µM).

Source: US7022875B2, “Thiobutacin and antifungal and antioomycete composition for controlling plant diseases using the same” (Korea University Industry and Academy Cooperation Foundation, priority 2003, dated 2006)
